# Assay results from PubChem BioAssay (NCI).
#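 1) Cells in 96-well plates. 2) Compound, 48 h, 5 concentrations. 3) Linear interpolation between surrounding doses. 4) Unreached endpoint = highest concentration. Abbreviation: GI50, concentration required for 50% inhibition of growth. TGI: total growth inhibition.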
# Assays:
# Assay in all cases: NCI anticancer screen, dose series, 48 h
# [1] = tested on: 786-0 renal
# [2] = tested on: A498 renal
# [3] = tested on: A549 NSCLC
# [4] = tested on: ACHN renal
# [5] = tested on: BT-549 breast
# [6] = tested on: CAKI-1 renal
# [7] = tested on: CCRF-CEM leukemia
# [8] = tested on: COLO 205 colon
# [9] = tested on: DU-145 prostate
# [10] = tested on: EKVX NSCLC
# [11] = tested on: HCC-2998 colon
# [12] = tested on: HCT-116 colon
# [13] = tested on: HCT-15 colon
# [14] = tested on: HL-60(TB) leukemia
# [15] = tested on: HOP-62 NSCLC
# [16] = tested on: HOP-92 NSCLC
# [17] = tested on: HS 578T breast
# [18] = tested on: HT29 colon
# [19] = tested on: IGROV1 ovarian
# [20] = tested on: K-562 leukemia
# [21] = tested on: KM12 colon
# [22] = tested on: LOX IMVI melanoma
# [23] = tested on: M14 melanoma
# [24] = tested on: MALME-3M melanoma
# [25] = tested on: MCF7 breast
# [26] = tested on: MDA-MB-435
# [27] = tested on: MOLT-4 leukemia
# [28] = tested on: NCI-H226 lung
smiles,measurement,setting,value
COc1ccccc1N1CCN(C2=NN=C(c3cccc(Cl)c3)c3ccccc3C2)CC1,GI50,[1],542 nM
same,TGI,[1],13200 nM
same,GI50,[2],350 nM
same,TGI,[2],2780 nM
same,GI50,[3],425 nM
same,TGI,[3],> 100000 nM
same,GI50,[4],554 nM
same,TGI,[4],> 100000 nM
same,GI50,[5],373 nM
same,TGI,[5],> 30500 nM
same,GI50,[6],410 nM
same,TGI,[6],13500 nM
same,GI50,[7],333 nM
same,TGI,[7],> 100000 nM
same,GI50,[8],337 nM
same,TGI,[8],1650 nM
same,GI50,[9],367 nM
same,TGI,[9],2370 nM
same,GI50,[10],556 nM
same,TGI,[10],> 100000 nM
same,GI50,[11],324 nM
same,TGI,[11],2270 nM
same,GI50,[12],337 nM
same,TGI,[12],> 36600 nM
same,GI50,[13],343 nM
same,TGI,[13],> 34200 nM
same,GI50,[14],285 nM
same,TGI,[14],920 nM
same,GI50,[15],508 nM
same,TGI,[15],> 65800 nM
same,GI50,[16],1000 nM
same,TGI,[16],> 22200 nM
same,GI50,[17],332 nM
same,GI50,[18],337 nM
same,GI50,[19],474 nM
same,TGI,[19],> 100000 nM
same,GI50,[20],336 nM
same,TGI,[20],> 100000 nM
same,GI50,[21],380 nM
same,TGI,[21],> 100000 nM
same,GI50,[22],418 nM
same,TGI,[22],> 100000 nM
same,GI50,[23],316 nM
same,GI50,[24],630 nM
same,TGI,[24],> 100000 nM
same,GI50,[25],351 nM
same,TGI,[25],> 38000 nM
same,GI50,[26],206 nM
same,TGI,[26],497 nM
same,GI50,[27],356 nM
same,TGI,[27],> 100000 nM
same,GI50,[28],1160 nM
